Experimental data as given in article PMC5607274, “An iterative compound screening contest method for identifying target protein inhibitors using the tyrosine-protein kinase Yes” (Scientific Reports, 2017).

Biological target: T1, human recombinant Yes [a.a. 2–543 (end)] (Homo sapiens, UniProt P07947)
T1 construct: human recombinant Yes [a.a; 2–543 (end)]; purchased BPS Bioscience 40488
Assay: ADP-Glo kinase assay, inhibition rates of Yes phosphorylation activity (first and second screening)
Assay type: biochemical
Settings: first screening; mean of n = 4 wells; 10 μmol L−1 compound
In short: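 Hits from a first pass were rescreened after re-dissolution from fresh powder. The first pass reported the mean inhibition rate of quadruplicate wells per compound. Activity was that of recombinant human Yes [a.a. 2–543] kinase, read out with the ADP-Glo ADP-detection method.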

T1 sequence (P07947 2-543): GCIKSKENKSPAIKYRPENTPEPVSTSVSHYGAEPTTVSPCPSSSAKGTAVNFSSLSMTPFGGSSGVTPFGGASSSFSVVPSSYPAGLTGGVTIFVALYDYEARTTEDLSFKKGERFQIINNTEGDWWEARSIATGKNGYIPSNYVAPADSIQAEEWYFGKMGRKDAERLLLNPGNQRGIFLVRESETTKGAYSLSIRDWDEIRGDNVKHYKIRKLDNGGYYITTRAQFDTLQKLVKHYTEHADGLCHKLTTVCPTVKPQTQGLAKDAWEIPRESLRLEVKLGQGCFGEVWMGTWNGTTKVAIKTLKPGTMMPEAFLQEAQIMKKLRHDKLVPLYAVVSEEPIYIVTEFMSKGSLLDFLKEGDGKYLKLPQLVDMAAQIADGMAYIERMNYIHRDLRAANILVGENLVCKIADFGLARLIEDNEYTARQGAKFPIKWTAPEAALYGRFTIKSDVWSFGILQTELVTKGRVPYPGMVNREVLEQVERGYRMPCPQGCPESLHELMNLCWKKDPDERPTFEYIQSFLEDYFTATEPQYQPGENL

Row | SMILES | First screening IR (inhibition rate)
1 | CN(c1ccc(OC(=O)C23CC4CC(CC(Cl)(C4)C2)C3)cc1)S(=O)(=O)c1ccccc1F [Compound Z29631119] | 5%
2 | Cc1c(C(=O)Nc2ccnn2C2CCCC2)oc2c(Cl)cccc12 [Compound Z28468306] | 0%
3 | CC(C)c1cc(C(=O)N(C)C2CCCCC2N(C)C(=O)c2cc(C(C)C)[nH]n2)n[nH]1 (stereo not shown) [Compound Z1511609753] | 5%
4 | CN(C)C1(CNC(=O)CNC(=O)c2cc(F)cc(F)c2)CCOCC1 [Compound Z1199845522] | 6%
5 | O=C(NCc1ccc(COCC(F)(F)F)cc1)c1ccc2nc[nH]c2c1 [Compound Z226277016] | 13%
6 | Cc1cc(=O)c(C(=O)N2CCC(C(=O)N3CCCCCC3)CC2)nn1-c1ccccc1F [Compound Z117548264] | 2%
7 | Cc1c(C#N)c(NC(=O)CN2CCC(n3c(=O)[nH]c4ccccc43)CC2)n(Cc2ccco2)c1C [Compound Z126941634] | 9%
8 | O=C(c1ccc(OCC2CC2)cc1)N1CCC(c2nnc3n2CCC3)CC1 [Compound Z809056560] | 2%
9 | CC(C)c1nc2n(n1)CC(NCc1cc(-c3cccs3)on1)CC2 (stereo not shown) [Compound Z1139411735] | -5%
10 | Cc1ccc(C(N)=O)c(OCc2ccc(C#N)cc2F)c1 [Compound Z217923492] | 9%
11 | CC(Sc1ncn(-c2ccccc2)n1)c1nc(N)nc(N(C)C)n1 (stereo not shown) [Compound Z317369924] | -4%
12 | N#Cc1ccccc1CSCCNC(=O)N1CCN(c2ncc(C(F)(F)F)cc2Cl)CC1 [Compound Z352490104] | -2%
13 | NC(=O)c1ccc2[nH]cc(C3CCN(C(=O)c4cccs4)CC3)c2c1 [Compound Z1624201749] | -35%
14 | CN(C)S(=O)(=O)CCCS(=O)(=O)c1nccn1C [Compound Z1134191724] | 22%
15 | CCOC(=O)c1c(-c2ccc(OC)c(OC)c2)csc1NC(=O)CN1CCN(C(=O)c2ccccc2)CC1 [Compound Z46404770] | 2%
16 | CCn1ncc2c(C(=O)OC)cc(-c3cccs3)nc21 [Compound Z90171904] | 20%
17 | COC(=O)Nc1ccc(NC(=O)C2CC2c2ccc(C(C)C)cc2)cc1F (stereo not shown) [Compound Z1646916001] | 7%
18 | Cc1ccc(CNC(C)(CO)c2cccc(C(F)(F)F)c2)nc1 (stereo not shown) [Compound Z1426135114] | 10%
19 | Cn1ncc2c(NCC3(c4ccccc4)CC3)ncnc21 [Compound Z229243940] | -5%
20 | Cc1nn(Cc2ccc(F)cc2)c2sc(C(=O)Nc3ccc(N4CCOCC4)cc3N3CCOCC3)cc12 [Compound Z28027525] | 3%
21 | COc1ccc(Nc2nc(N3CCCCC3)nc(N)c2[N+](=O)[O-])cc1 [Compound Z245295930] | 8%
22 | CS(=O)(=O)C1(S(C)(=O)=O)CCCCC1 [Compound Z56758188] | 14%
23 | Cc1ccc(-c2cc(C(=O)OCc3nc(C(C)(C)C)no3)n[nH]2)s1 [Compound Z355654248] | 12%
24 | Cn1ncc2c(N3CCCC3CO)ncnc21 (stereo not shown) [Compound Z817034034] | 3%
25 | CC(C)C(C)NC(=O)C1CCN(Cc2ccc(C#N)cc2)CC1 (stereo not shown) [Compound Z975048678] | 5%
26 | CCC1CCCCN1S(=O)(=O)c1ccc(S(C)(=O)=O)cc1 (stereo not shown) [Compound Z300098278] | 51%
27 | COc1ccc(CNCc2cn[nH]c2-c2ccc(C)o2)cn1 [Compound Z446209214] | -2%
28 | CC(C)(C)OC(=O)N1CCc2nc(NC(=O)c3csc(-c4ccco4)n3)sc2C1 [Compound Z296452432] | -4%

Other lines, results leading:

Row | First screening IR (inhibition rate) | SMILES
29 | 14% | Cc1nc(NCCn2cccn2)c2cnn(-c3ccccc3)c2n1 [Compound Z751573116]
30 | -7% | COc1ccc(-c2cc(CSCc3nc(N)nc(Nc4ccccc4)n3)on2)cc1 [Compound Z317187130]
31 | 3% | COc1ccc(-c2cc(C(=O)Nc3ccc(N4CCN(C)CC4)cc3C)c3ccccc3n2)cc1OC [Compound Z27974061]
32 | 7% | CCn1cc(C(=O)c2cc(Cl)ccc2O)cc1-c1nc2ccccc2c(=O)[nH]1 [Compound Z135358570]
33 | 39% | O=C(COc1ccc(-c2cc(-c3ccccc3)c3cc(Cl)ccc3n2)cc1)NCCO [Compound Z57805545]
34 | -16% | COc1cccc(-c2cc(-c3ccccc3)c3cc(Br)ccc3n2)c1 [Compound Z1409331244]
35 | -22% | O=C(NCc1ccnc(Oc2ccccc2)c1)c1ccc(OCc2cccnc2)cc1 [Compound Z424307182]
36 | 0% | COc1ccc2c(c1)c(CC(=O)OCc1ncc(Cl)n1C)c(C)n2C(=O)c1ccc(Cl)cc1 [Compound Z148531038]
37 | 7% | O=C(NCCSc1ccc(Br)cc1)c1ccc2nc[nH]c2c1 [Compound Z30463043]
38 | -5% | O=C1C(=O)N(CCCn2ccnc2)C(c2ccc(F)cc2)/C1=C(\O)c1ccc(Cl)cc1 (stereo not shown) [Compound Z57239976]
39 | 30% | O=C(CCC(=O)N1CCC(c2ccccc2)=N1)NCc1cccc(Cl)c1 [Compound Z32361141]
40 | 4% | Clc1ccc2nc(NC3=NCN(CCN4CCOCC4)CN3)nc(-c3ccccc3)c2c1 [Compound Z57440306]
41 | 19% | O=C(NCCCc1c[nH]c2ccccc12)Nc1ccncc1F [Compound Z1677751393]
42 | -5% | CCN1CCN(c2cc(CNC(=O)c3cn(-c4ccccc4)nc3-c3ccc(OC)cc3)ccn2)CC1 [Compound Z955363064]
43 | 5% | Cc1ccc(-n2c(C)nnc2SCC(=O)Nc2c(C#N)c(C)c(C)n2Cc2ccccc2)cc1 [Compound Z152755906]
44 | 8% | Cl.Oc1c(-c2ccccc2)nc2ccc(Cl)cc2c1-c1ccccc1 [Compound Z166605136]
45 | 39% | O=C(CN1CCN(c2cc(C(=O)N3CCOCC3)c3ccccc3n2)CC1)Nc1ccccc1Cl [Compound Z165229378]
46 | 1% | O=C(O)/C=C/c1cccc(NS(=O)(=O)/C=C/c2ccccc2)c1 [Compound Z56757962]
47 | 15% | O=S1(=O)CC(S(=O)(=O)c2ccccc2)C(S(=O)(=O)c2ccccc2)C1 (stereo not shown) [Compound Z56757817]
48 | 5% | N#C/C(=C(/O)COC(=O)CCc1ccccc1)c1nc2ccccc2[nH]1 [Compound Z18264769]
49 | 9% | O=C(Nc1cnc2ccccc2c1)c1ccc(-n2ccc(C(F)(F)F)n2)cc1 [Compound Z815840280]
50 | -3% | Cl.Clc1ccc(-c2cc(-c3ccccc3Cl)c3cc(Cl)ccc3n2)cc1 [Compound Z48951731]
51 | 24% | Cc1ccc(-c2nn3c(=O)c4c(-c5cccs5)csc4nc3c3ccccc23)cc1 [Compound Z55164116]
52 | 4% | Cc1cccc(-c2nc(C(C)C)no2)c1NC(=O)CCc1ccccc1 [Compound Z1082320758]
